Laboratory results: patent US10780090B2, “Heteroaryl compounds useful as inhibitors of SUMO activating enzyme” (Millennium Pharmaceuticals, Inc., priority 2014, dated 2020)

Biological target: recombinant human SAE enzyme (Homo sapiens (Human), UniProt Q9UBT2)
Assay: SAE HTRF enzyme assay
Format: biochemical
Settings: for Percent Inhibition: Concentration 0.111 μM; for IC50: class symbols A/B/C
Summary of the method: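 0.11 nM SAE incubated with 0.5 μM ATP, 0.01 μM Ubc9-GST and 0.125 μM Sumo-Flag in HEPES pH 7.5, MgCl2, GSH, BSA, ±inhibitor, 105 min at 24° C. EDTA stop; Eu-cryptate anti-Flag/XL-APC anti-GST HTRF read after 2 h. Values given as single-concentration % inhibition or IC50.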

recombinant human SAE enzyme, sequence (Q9UBT2 whole entry): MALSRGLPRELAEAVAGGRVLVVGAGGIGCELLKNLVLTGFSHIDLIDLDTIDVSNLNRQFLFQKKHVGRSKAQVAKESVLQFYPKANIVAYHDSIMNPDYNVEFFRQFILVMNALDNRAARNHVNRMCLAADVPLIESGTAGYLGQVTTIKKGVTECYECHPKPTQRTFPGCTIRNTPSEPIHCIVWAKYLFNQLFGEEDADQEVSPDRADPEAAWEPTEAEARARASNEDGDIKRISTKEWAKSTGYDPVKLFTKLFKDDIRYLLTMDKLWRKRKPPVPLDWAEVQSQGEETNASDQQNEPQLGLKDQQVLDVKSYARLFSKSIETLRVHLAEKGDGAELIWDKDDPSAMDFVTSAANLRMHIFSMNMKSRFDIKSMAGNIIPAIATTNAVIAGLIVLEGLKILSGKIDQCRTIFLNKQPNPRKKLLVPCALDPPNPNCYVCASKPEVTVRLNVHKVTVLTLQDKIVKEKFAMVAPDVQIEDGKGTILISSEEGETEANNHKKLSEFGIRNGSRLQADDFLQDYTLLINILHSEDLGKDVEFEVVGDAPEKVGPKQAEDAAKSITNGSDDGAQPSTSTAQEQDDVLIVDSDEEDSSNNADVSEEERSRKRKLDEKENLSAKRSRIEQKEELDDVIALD
recombinant human SAE enzyme, sequence (Q9UBE0 whole entry partner): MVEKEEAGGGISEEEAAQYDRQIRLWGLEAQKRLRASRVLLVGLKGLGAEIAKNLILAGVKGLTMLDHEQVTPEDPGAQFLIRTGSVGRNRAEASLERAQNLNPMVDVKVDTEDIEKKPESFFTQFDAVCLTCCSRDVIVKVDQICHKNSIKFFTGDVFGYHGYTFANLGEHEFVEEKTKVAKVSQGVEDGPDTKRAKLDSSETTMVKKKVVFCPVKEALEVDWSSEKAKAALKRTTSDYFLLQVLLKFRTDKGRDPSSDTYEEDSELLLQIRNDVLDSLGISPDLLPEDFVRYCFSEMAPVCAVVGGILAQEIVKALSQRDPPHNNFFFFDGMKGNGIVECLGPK

SMILES | Percent Inhibition | IC50
N[C@@H](c1cccc(Cl)c1)c1cc(C(=O)c2cncnc2N[C@@H]2C[C@H](COS(N)(=O)=O)[C@@H](O)[C@H]2O)sc1Cl (single isomer, unassigned) [I-14b, [(1R,2R,3S,4R)-4-{[5-({4-[(S)-Amino(3-chlorophenyl)methyl]-5-chloro-2-thienyl)carbonyl)pyrimidin-4-yl]amino}-2,3-dihydroxycyclopentyl]methyl sulfamate or [(1R,2R,3S,4R)-4-{[5-({4-[(R)-Amino(3-chlorophenyl)methyl]-5-chloro-2-thienyl}carbonyl)pyrimidin-4-yl]amino}-2,3-dihydroxycyclopentyl]methyl sulfamate] | 95 | < 10 nM
N[C@H](c1cccc(Cl)c1)c1cc(C(=O)c2cncnc2N[C@@H]2C[C@H](COS(N)(=O)=O)[C@@H](O)C2)sc1Cl (single isomer, unassigned) [I-15a, [(1R,2S,4R)-4-{[5-({4-[(R)-amino(3-chlorophenyl)methyl]-5-chloro-2-thienyl}carbonyl)pyrimidin-4-yl]amino}-2-hydroxycyclopentyl]methyl sulfamate or [(1R,2S,4R)-4-{[5-({4-[(S)-amino(3-chlorophenyl)methyl]-5-chloro-2-thienyl}carbonyl)pyrimidin-4-yl]amino}-2-hydroxycyclopentyl]methyl sulfamate] | 66 | 10 to 100 nM
N[C@H](c1cccc(Cl)c1)c1cc(C(=O)c2cncnc2N[C@@H]2C[C@H](COS(N)(=O)=O)[C@@H](O)C2)sc1Cl (single isomer, unassigned) [I-15b, [(1R,2S,4R)-4-{[5-({4-[(R)-amino(3-chlorophenyl)methyl]-5-chloro-2-thienyl}carbonyl)pyrimidin-4-yl]amino}-2-hydroxycyclopentyl]methyl sulfamate or [(1R,2S,4R)-4-{[5-({4-[(S)-amino(3-chlorophenyl)methyl]-5-chloro-2-thienyl}carbonyl)pyrimidin-4-yl]amino}-2-hydroxycyclopentyl]methyl sulfamate] | 100 | < 10 nM
NS(=O)(=O)OC[C@H]1C[C@@H](Nc2ncncc2C(=O)c2cc([C@@H](O)c3cccc(Br)c3)c(Cl)s2)C[C@@H]1O (single isomer, unassigned) [I-16a, [(1R,2S,4R)-4-{[5-({4-[(S)-(3-Bromophenyl)(hydroxy)methyl-5-chloro-2-thienyl}carbonyl)pyrimidin-4-yl]amino}-2-hydroxycyclopentyl]methyl sulfamate or [(1R,2S,4R)-4-{[5-({4-[(R)-(3-Bromophenyl)(hydroxy)methyl]-5-chloro-2-thienyl}carbonyl)pyrimidin-4-yl]amino}-2-hydroxycyclopentyl]methyl sulfamate] | 99 | < 10 nM
NS(=O)(=O)OC[C@H]1C[C@@H](Nc2ncncc2C(=O)c2cc([C@@H](O)c3cccc(Br)c3)c(Cl)s2)C[C@@H]1O (single isomer, unassigned) [I-16b, 1R,2S,4R)-4-{[5-({4-[(S)-(3-Bromophenyl)(hydroxy)methyl]-5-chloro-2-thienyl}carbonyl)pyrimidin-4-yl]amino}-2-hydroxycyclopentyl]methyl sulfamate or [(1R,2S,4R)-4-{[5-({4-[(R)-(3-Bromophenyl)(hydroxy)methyl]-5-chloro-2-thienyl}carbonyl)pyrimidin-4-yl]amino}-2-hydroxycyclopentyl]methyl sulfamate] | 98 | < 10 nM
N[C@@H](c1cccc(Br)n1)c1cc(C(=O)c2cncnc2N[C@@H]2C[C@H](COS(N)(=O)=O)[C@@H](O)C2)sc1Cl (single isomer, unassigned) [I-18a, [(1R,2S,4R)-4-{[5-({4-[(R)-amino(6-bromopyridin-2-yl)methyl]-5-chloro-2-thienyl}carbonyl)pyrimidin-4-yl]amino}-2-hydroxycyclopentyl]methyl sulfamate or [(1R,2S,4R)-4-{[5-({4-[(S)-amino(6-bromopyridin-2-yl)methyl]-5-chloro-2-thienyl}carbonyl)pyrimidin-4-yl]amino}-2-hydroxycyclopentyl]methyl sulfamate] | 82 | 10 to 100 nM
N[C@@H](c1cccc(Br)n1)c1cc(C(=O)c2cncnc2N[C@@H]2C[C@H](COS(N)(=O)=O)[C@@H](O)C2)sc1Cl (single isomer, unassigned) [I-18b, [(1R,2S,4R)-4-{[5-({4-[(R)-amino(6-bromopyridin-2-yl)methyl]-5-chloro-2-thienyl}carbonyl)pyrimidin-4-yl]amino}-2-hydroxycyclopentyl]methyl sulfamate or [(1R,2S,4R)-4-{[5-({4-[(S)-amino(6-bromopyridin-2-yl)methyl]-5-chloro-2-thienyl}carbonyl)pyrimidin-4-yl]amino}-2-hydroxycyclopentyl]methyl sulfamate] | 99 | < 10 nM
NS(=O)(=O)OC[C@H]1C[C@@H](Nc2ncncc2C(=O)c2cc([C@H](O)c3cc(Br)ccc3F)cs2)C[C@@H]1O (single isomer, unassigned) [I-19a, [(1R,2S,4R)-4-{[5-({4-[(R)-(5-bromo-2-fluorophenyl)(hydroxy)methyl]-2-thienyl}carbonyl)pyrimidin-4-yl]amino}-2-hydroxycyclopentyl]methyl sulfamate or [(1R,2S,4R)-4-{[5-({4-[(S)-(5-bromo-2-fluorophenyl)(hydroxy)methyl]-2-thienyl}carbonyl)pyrimidin-4-yl]amino}-2-hydroxycyclopentyl]methyl sulfamate] | 98 | < 10 nM
NS(=O)(=O)OC[C@H]1C[C@@H](Nc2ncncc2C(=O)c2cc([C@H](O)c3cc(Br)ccc3F)cs2)C[C@@H]1O (single isomer, unassigned) [I-19b, [(1R,2S,4R)-4-{[5-({4-[(R)-(5-bromo-2-fluorophenyl)(hydroxy)methyl]-2-thienyl}carbonyl)pyrimidin-4-yl]amino}-2-hydroxycyclopentyl]methyl sulfamate or [(1R,2S,4R)-4-{[5-({4-[(S)-(5-bromo-2-fluorophenyl)(hydroxy)methyl]-2-thienyl}carbonyl)pyrimidin-4-yl]amino}-2-hydroxycyclopentyl]methyl sulfamate] | 99 | < 10 nM
NS(=O)(=O)OC[C@H]1C[C@@H](Nc2ncncc2C(=O)c2cc(C3(c4cccc(Cl)c4)CCCO3)cs2)C[C@@H]1O (single isomer, unassigned) [I-20a, [(1R,2S,4R)-4-{[5-({4-[(2S)-2-(3-chlorophenyl)tetrahydrofuran-2-yl]-2-thienyl}carbonyl)pyrimidin-4-yl]amino}-2-hydroxycyclopentyl]methyl sulfamate or [(1R,2S,4R)-4-{[5-({4-[(2R)-2-(3-chlorophenyl)tetrahydrofuran-2-yl]-2-thienyl}carbonyl)pyrimidin-4-yl]amino}-2-hydroxycyclopentyl]methyl sulfamate] | 81 | 10 to 100 nM
NS(=O)(=O)OC[C@H]1C[C@@H](Nc2ncncc2C(=O)c2cc(C3(c4cccc(Cl)c4)CCCO3)cs2)C[C@@H]1O (single isomer, unassigned) [I-20b, [(1R,2S,4R)-4-{[5-({4-[(2S)-2-(3-chlorophenyl)tetrahydrofuran-2-yl]-2-thienyl}carbonyl)pyrimidin-4-yl]amino}-2-hydroxycyclopentyl]methyl sulfamate or [(1R,2S,4R)-4-{[5-({4-[(2R)-2-(3-chlorophenyl)tetrahydrofuran-2-yl]-2-thienyl}carbonyl)pyrimidin-4-yl]amino}-2-hydroxycyclopentyl]methyl sulfamate] | 99 | < 10 nM
N[C@H](c1cccc(Br)c1)c1cc(C(=O)c2cncnc2N[C@@H]2C[C@H](COS(N)(=O)=O)[C@@H](O)C2)sc1Cl (single isomer, unassigned) [I-22a, [(1R,2S,4R)-4-{[5-({4-[(R)-amino(3-bromophenyl)methyl]-5-chloro-2-thienyl}carbonyl)pyrimidin-4-yl]amino}-2-hydroxycyclopentyl]methyl sulfamate or [(1R,2S,4R)-4-{[5-({4-[(S)-amino(3-bromophenyl)methyl]-5-chloro-2-thienyl}carbonyl)pyrimidin-4-yl]amino}-2-hydroxycyclopentyl]methyl sulfamate] | 83 | 10 to 100 nM
N[C@H](c1cccc(Br)c1)c1cc(C(=O)c2cncnc2N[C@@H]2C[C@H](COS(N)(=O)=O)[C@@H](O)C2)sc1Cl (single isomer, unassigned) [I-22b, [(1R,2S,4R)-4-{[5-({4-[(R)-amino(3-bromophenyl)methyl]-5-chloro-2-thienyl}carbonyl)pyrimidin-4-yl]amino}-2-hydroxycyclopentyl]methyl sulfamate or [(1R,2S,4R)-4-{[5-({4-[(S)-amino(3-bromophenyl)methyl]-5-chloro-2-thienyl}carbonyl)pyrimidin-4-yl]amino}-2-hydroxycyclopentyl]methyl sulfamate] | 99 | < 10 nM
N[C@H](c1cccc(Br)c1)c1cc(C(=O)c2cncnc2N[C@@H]2C[C@H](COS(N)(=O)=O)[C@@H](O)[C@H]2O)sc1Cl (single isomer, unassigned) [I-24a, [(1R,2R,3S,4R)-4-{[5-({4-[(R)-amino(3-bromophenyl)methyl]-5-chloro-2-thienyl}carbonyl)pyrimidin-4-yl]amino}-2,3-dihydroxycyclopentyl]methyl sulfamate or [(1R,2R,3S,4R)-4-{[5-({4-[(S)-amino(3-bromophenyl)methyl]-5-chloro-2-thienyl}carbonyl)pyrimidin-4-yl]amino}-2,3-dihydroxycyclopentyl]methyl sulfamate] | 101 | < 10 nM
